{
  "source": "patent US9920036B2",
  "about": "“Cyanoamino (aza)benzofuran compounds for the treatment of hepatitis C” (BRISTOL-MYERS SQUIBB COMPANY, priority 2014, dated 2018)",
  "key": {"[1]": {"tested_on": "genotype 1b (Con-1) HCV replicon", "assay": "HCV replicon luciferase assay", "assay_type": "cell-based", "details": "Hepatitis C virus, 72 h, Huh-7 cells with genotype 1b HCV replicon, Renilla luciferase, 3 days incubation", "experimental": "Cell lines. The cell lines used to evaluate compounds consist of a human hepatocyte derived cell line (Huh-7) that constitutively expresses a genotype 1b (Con-1) HCV replicon or a genotype 1b (Con-1) HCV replicon with an asparagine replacing the cysteine at amino acid 316, or a genotype 2a (JFH-1) replicon, containing a Renilla luciferase reporter gene. These cells were maintained in Dulbecco's modified Eagle medium (DMEM) containing 10% FBS, 100 U/mL penicillin/streptomycin and 1.0 mg/mL G418.\nHCV replicon luciferase assay. To evaluate compound efficacy, titrated compounds were transferred to sterile 384-well tissue culture treated plates, and the plates were seeded with HCV replicon cells (50 μL at a density of 2.4×10^3 cells/well) in DMEM containing 4% FBS (final DMSO concentration at 0.5%). After 3 days incubation at 37° C., cells were analyzed for Renilla Luciferase activity using the EnduRen substrate (Promega cat #E6485) according to the manufacturer's directions. Briefly, the EnduRen substrate was diluted in DMEM and then added to the plates to a final concentration of 7.5 μM. The plates were incubated for at least 1 h at 37° C. then read on a Viewlux Imager (PerkinElmer) using a luminescence program. The 50% effective concentration (EC50) was calculated using the four-parameter logistic formula noted above.\nCompound EC50 data is expressed as A: <100 nM; B=100-1000 nM; C>1000 nM)."}, "HCV [2]": {"tested_on": "HCV", "details": "combination therapy; cited from earlier work"}, "HCV [3]": {"tested_on": "HCV", "details": "cited from earlier work"}},
  "note": "Where two headings read alike, the source gives them in different places.",
  "data": [
    {"compound": "CCN(C#N)c1cc2oc(-c3ccc(F)cc3)c(C(=O)NC)c2cc1-c1cccc(C(=O)NC2(c3ncccn3)CC2)c1", "note": "[Compound 1013]", "values": [
      {"measurement": "EC50", "setting": "[1]; read-out: EC50 1b (class)", "value": "< 0.1", "unit": "µM"}
    ]},
    {"compound": "CCN(C#N)c1cc2oc(-c3ccc(F)cc3)c(C(=O)NC)c2cc1-c1ccc(OC)c(C(=O)NC(C)(C#N)C(C)C)c1", "note": "(stereo not shown) [Compound 1014]", "values": [
      {"measurement": "EC50", "setting": "[1]; read-out: EC50 1b (class)", "value": "< 0.1", "unit": "µM"}
    ]},
    {"compound": "CCN(C#N)c1cc2oc(-c3ccc(F)cc3)c(C(=O)NC)c2cc1-c1cccc(C(=O)NC2(C(F)(F)F)CC2)c1", "note": "[Compound 1010]", "values": [
      {"measurement": "EC50", "setting": "[1]; read-out: EC50 1b (class)", "value": "< 0.1", "unit": "µM"}
    ]},
    {"compound": "CCN(C#N)c1cc2oc(-c3ccc(F)cc3)c(C(=O)NC)c2cc1-c1cccc(C(=O)NC2(C#N)CCC2)c1", "note": "[Compound 1015]", "values": [
      {"measurement": "EC50", "setting": "[1]; read-out: EC50 1b (class)", "value": "< 0.1", "unit": "µM"}
    ]},
    {"compound": "CCN(C#N)c1cc2oc(-c3ccc(F)cc3)c(C(=O)NC)c2cc1-c1cccc(C2=NC(C)(C)C(=O)O2)c1", "note": "[Compound 1012]", "values": [
      {"measurement": "EC50", "setting": "[1]; read-out: EC50 1b (class)", "value": "0.1 to 1", "unit": "µM"},
      {"measurement": "EC50", "setting": "[1]; read-out: EC50 (μM) 1b", "value": 0.36, "unit": "µM"}
    ]},
    {"compound": "CCN(C#N)c1cc2oc(-c3ccc(F)cc3)c(C(=O)NC)c2cc1-c1cccc(C(=O)NC(C)(C)C(=O)OC)c1", "note": "[Compound 1016]", "values": [
      {"measurement": "EC50", "setting": "[1]; read-out: EC50 1b (class)", "value": "< 0.1", "unit": "µM"}
    ]},
    {"compound": "alpha-interferon and ribavirin", "values": [
      {"measurement": "sustained efficacy in patients", "setting": "HCV [2]", "value": 40, "unit": "%"}
    ]},
    {"compound": "CCN(C#N)c1cc2oc(-c3ccc(F)cc3)c(C(=O)NC)c2cc1-c1cccc(C(=O)NCC(F)(F)C(F)(F)C(F)(F)C(F)(F)F)c1", "note": "[Compound 1002]", "values": [
      {"measurement": "EC50", "setting": "[1]; read-out: EC50 1b (class)", "value": "< 0.1", "unit": "µM"},
      {"measurement": "EC50", "setting": "[1]; read-out: EC50 (μM) 1b", "value": 0.047, "unit": "µM"}
    ]},
    {"compound": "CNC(=O)c1c(-c2ccc(F)cc2)oc2cc(N(CCO)S(C)(=O)=O)c(C3CC3)cc12", "note": "[HCV-796]", "values": [
      {"measurement": "hepatic toxicity", "setting": "HCV [3]; extended dosing of the combination regimens", "value": "hepatic toxicity observed during extended dosing of the combination regimens"},
      {"measurement": "HCV RNA levels in patients", "setting": "HCV [3]; patients, single agent or combined with interferon and ribavirin", "value": "has shown an ability to reduce HCV RNA levels in patients"}
    ]},
    {"compound": "CCN(C#N)c1cc2oc(-c3ccc(F)cc3)c(C(=O)NC)c2cc1-c1ccc(F)c(C(=O)NC2(c3ncccn3)CC2)c1", "note": "[Compound 1009]", "values": [
      {"measurement": "EC50", "setting": "[1]; read-out: EC50 1b (class)", "value": "< 0.1", "unit": "µM"}
    ]},
    {"compound": "CCN(C#N)c1cc2oc(-c3ccc(F)cc3)c(C(=O)NC)c2cc1-c1ccc(OC)c(C(=O)NC2(C#N)CCCC2)c1", "note": "[Compound 1008]", "values": [
      {"measurement": "EC50", "setting": "[1]; read-out: EC50 1b (class)", "value": "< 0.1", "unit": "µM"}
    ]},
    {"compound": "CCN(C#N)c1cc2oc(-c3ccc(F)cc3)c(C(=O)NC)c2cc1-c1cccc(C(=O)NC(C)(C)CO)c1", "note": "[Compound 1005]", "values": [
      {"measurement": "EC50", "setting": "[1]; read-out: EC50 1b (class)", "value": "< 0.1", "unit": "µM"}
    ]},
    {"compound": "CCN(C#N)c1cc2oc(-c3ccc(F)cc3)c(C(=O)NC)c2cc1-c1cccc(C(=O)NC(C)(CO)CO)c1", "note": "[Compound 1011]", "values": [
      {"measurement": "EC50", "setting": "[1]; read-out: EC50 1b (class)", "value": "0.1 to 1", "unit": "µM"}
    ]},
    {"compound": "CCN(C#N)c1cc2oc(-c3ccc(F)cc3)c(C(=O)NC)c2cc1-c1cccc(C(=O)NC(C)(C)C#N)c1", "note": "[Compound 1007]", "values": [
      {"measurement": "EC50", "setting": "[1]; read-out: EC50 1b (class)", "value": "< 0.1", "unit": "µM"},
      {"measurement": "EC50", "setting": "[1]; read-out: EC50 (μM) 1b", "value": 0.0041, "unit": "µM"}
    ]},
    {"compound": "[2H]C([2H])([2H])C(NC(=O)c1cc(-c2cc3c(C(=O)NC)c(-c4ccc(F)cc4)oc3cc2N(C#N)CC)ccc1OC)(C([2H])([2H])[2H])C([2H])([2H])[2H]", "note": "[Compound 1017]", "values": [
      {"measurement": "EC50", "setting": "[1]; read-out: EC50 1b (class)", "value": "< 0.1", "unit": "µM"},
      {"measurement": "EC50", "setting": "[1]; read-out: EC50 (μM) 1b", "value": 0.0039, "unit": "µM"}
    ]},
    {"compound": "CCN(C#N)c1cc2oc(-c3ccc(F)cc3)c(C(=O)NC)c2cc1-c1cccc(C(=O)NC(C)(C)COC)c1", "note": "[Compound 1006]", "values": [
      {"measurement": "EC50", "setting": "[1]; read-out: EC50 1b (class)", "value": "< 0.1", "unit": "µM"}
    ]},
    {"compound": "CCN(C#N)c1cc2oc(-c3ccc(F)cc3)c(C(=O)NC)c2cc1-c1cccc(C(=O)NC(C)(C)CC(C)O)c1", "note": "(stereo not shown) [Compound 1004]", "values": [
      {"measurement": "EC50", "setting": "[1]; read-out: EC50 1b (class)", "value": "< 0.1", "unit": "µM"},
      {"measurement": "EC50", "setting": "[1]; read-out: EC50 (μM) 1b", "value": 0.013, "unit": "µM"}
    ]},
    {"compound": "CCN(C#N)c1cc2oc(-c3ccc(F)cc3)c(C(=O)NC)c2cc1-c1ccc(OC)c(C(=O)NC(CF)(CF)CF)c1", "note": "[Compound 1003]", "values": [
      {"measurement": "EC50", "setting": "[1]; read-out: EC50 1b (class)", "value": "< 0.1", "unit": "µM"}
    ]},
    {"compound": "CCN(C#N)c1cc2oc(-c3ccc(F)cc3)c(C(=O)NC)c2cc1-c1cccc(C(=O)NCC(C)(C)c2ccccc2)c1", "note": "[Compound 1001]", "values": [
      {"measurement": "EC50", "setting": "[1]; read-out: EC50 1b (class)", "value": "< 0.1", "unit": "µM"}
    ]}
  ]
}
